The target of the experiment is T1, human CRF receptors (Homo sapiens, UniProt P34998).
T1 construct: expressed in transfected cells; membrane suspension of stably transfected cells
T1 sequence (P34998 24-415): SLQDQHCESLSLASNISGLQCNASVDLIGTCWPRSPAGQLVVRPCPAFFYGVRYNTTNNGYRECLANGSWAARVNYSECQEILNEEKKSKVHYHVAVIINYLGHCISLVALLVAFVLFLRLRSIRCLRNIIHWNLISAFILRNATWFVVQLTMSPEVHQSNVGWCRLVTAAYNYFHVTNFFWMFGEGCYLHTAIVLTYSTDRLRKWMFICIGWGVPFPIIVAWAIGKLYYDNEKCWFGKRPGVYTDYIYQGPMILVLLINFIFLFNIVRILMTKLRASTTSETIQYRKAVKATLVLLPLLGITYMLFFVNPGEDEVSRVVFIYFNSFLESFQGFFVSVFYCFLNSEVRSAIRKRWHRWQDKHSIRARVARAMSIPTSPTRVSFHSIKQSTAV
Kind of experiment: CRF receptor radioligand binding assay (displacement of [125I]tyrosine-ovine CRF). The conditions noted are these: CRF receptor binding affinity, assayed by the methods of Example 9. The text has this: The effectiveness of a compound as a CRF receptor antagonist may be determined by various assay methods. Suitable CRF antagonists of this invention are capable of inhibiting the specific binding of CRF to its receptor and antagonizing activities associated with CRF. A compound of structure (I) may be assessed for activity as a CRF antagonist by one or more generally accepted assays for this purpose, including (but not limited to) the assays disclosed by DeSouza et al. (J. Neuroscience 7:88, 1987) and Battaglia et al. (Synapse 1:572, 1987). […] CRF receptor affinity may be determined by binding studies that measure the ability of a compound to inhibit the binding of a radiolabeled CRF (e.g., [^125I]tyrosine-CRF) to its receptor (e.g., receptors prepared from rat cerebral cortex membranes). […]
The compounds of this invention may be evaluated for binding activity to the CRF receptor by a standard radioligand binding assay as generally described by DeSouza et al. (J. Neurosci. 7:88-100, 1987). […]
More specifically, the binding assay is performed in 1.5 ml Eppendorf tubes using approximately 1×10^6 cells per tube stably transfected with human CRF receptors. […] Following two washes of the pellets, the tubes are cut just above the pellet and monitored in a gamma counter for radioactivity at approximately 80% efficiency. […]

The molecule `CCCC(CCC)N1N=C(C)n2nc(-c3ccc(OC)cc3C)c3nc(C)cc1c32` [Compound 8-3] came in with an inhibitory constant (Ki) of under 100 nM.
